US20250161278A1, “CBL-B INHIBITOR, COMPOSITIONS COMPRISING A CBL-B INHIBITOR IN A METHOD OF TREATING A DISEASE ASSOCIATED WITH CELL PROLIFERATION” (HOTSPOT THERAPEUTICS, INC., priority 2022, published 2025)

Columns and labels:
[1] = test system: H22 tumor cells; experiment: Subcutaneous H22 murine liver cancer model, tumor growth inhibition; type: in vivo, mouse; details: for TGI (%): H22 s.c., female BALB/c mice
Experimental: The objective of this pharmacology study was to evaluate the anti-tumor growth efficacy of Compound 85 in the treatment of the subcutaneous H22 murine liver cancer model in female BALB/c mice. Compound 85 test particles were delivered via PO when the average tumor volume reached approximately 80 mm^3. […] Tumor volumes and body weight were measured three times per week after the initiation of treatment.
The H22 tumor cells were maintained in vitro with RPMI-1640 medium supplemented with 10% fetal bovine serum at 37° C. in an atmosphere of 5% CO2. Cells in the exponential growth phase were harvested and quantified by cell counter before tumor inoculation.
Each mouse was inoculated subcutaneously in the right front flank region with H22 tumor cells (1×10e6) in 0.1 ml of PBS for tumor development.
The randomization started when the mean tumor size reaches approximately 79.89 mm^A3. […] Randomization was performed based on “Matched distribution” method/“Stratified” method (Study Director™ software, version 3.1.399.19)/randomized block design. The date of randomization was denoted as day 0.
(§1) After tumor inoculation, the animals were checked daily for morbidity and mortality. During routine monitoring, the animals were checked for any effects of tumor growth and treatments on behavior such as mobility, food and water consumption, body weight gain/loss (Body weights were measured thrice per week after randomization), eye/hair matting and any other abnormalities. Mortality and observed clinical signs were recorded for individual animals in detail.
(§2) Tumor volumes were measured three times per week after randomization in two dimensions using a caliper, and the volume was expressed in mm3 using the formula: V=(L×W×W)/2, where V is tumor volume, L is tumor length (the longest tumor dimension) and W is tumor width (the longest tumor dimension perpendicular to L). Dosing, as well as tumor and body weight measurements, were conducted in a Laminar Flow Cabinet.
Tumor growth inhibition (TGI): TGI % is an indication of antitumor activity, expressed as: TGI (%)=100×(1−T/C). T and C are the mean tumor volume (or weight) of the treated and control groups on a given day.
The treatment was performed for 21 days and the study was terminated on day 20 post dosing initiation.

[2] = test system: CT26 tumor cells; experiment: Subcutaneous CT26 murine colorectal cancer model (Example 6), tumor growth inhibition; type: in vivo, mouse; details: day 13, CT26 s.c., female BALB/c mice
Experimental: The objective of this study was to evaluate preclinically the in vivo dose of test compounds in the treatment of the subcutaneous CT26 murine colorectal cancer model in female BALB/c mice.
The CT26 tumor cells were maintained in vitro with RPMI-1640 medium supplemented with 10% fetal bovine serum at 37° C. in an atmosphere of 5% CO2 in air. The cells in exponential growth phase was harvested and quantitated by cell counter before tumor inoculation.
Each mouse was inoculated subcutaneously in the right lower flank region with CT26 tumor cells (5×10^5) in 0.1 ml of PBS for tumor development.
The randomization started when the mean tumor size reaches approximately 89.91 mm^3. Totally 80 mice were enrolled in the study and randomly allocated to 8 study groups, with 10 mice per group. Randomization was performed based on “Matched distribution” method (Study Director™ software, version 3.1.399.19). The date of randomization was denoted as day 0 (Jul. 8, 2021).
as §1, with “weights would be” for “weights were”, “measured twice” for “measured thrice”
as §2, with “twice” for “three times”, “Dosing” for “Dosing,”, “measurements” for “measurements,”
Tumor growth inhibition (TGI): TGI % is an indication of antitumor activity, and expressed as: TGI (%)=100×(1−T/C). T and C are the mean tumor volume (or weight) of the treated and control groups, respectively, on a given day.
The treatment was performed for 14 days. There was no extension of the treatment, the study was terminated on Day 13 post dosing initiation.
To compare tumor volumes of different groups at a pre-specified day, Bartlett's test was used to check the assumption of homogeneity of variance across all groups. When the p-value of Bartlett's test was >=0.05, we ran one-way ANOVA to test overall equality of means across all groups. If the p-value of the one-way ANOVA was <0.05, post hoc testing was performed by running Tukey's HSD (honest significant difference) tests for all pairwise comparisons, and Dunnett's tests for comparing each treatment group with the vehicle group. […]

[3] = test system: CT26 tumor cells; experiment: Subcutaneous CT26 murine colorectal cancer model (Example 5), tumor growth inhibition; type: in vivo, mouse; details: CT26 s.c., female BALB/c mice
Experimental: (§3) The objective of this study was to evaluate the in vivo anti-tumor efficacy of Compound 85 in the subcutaneous CT26 murine colorectal cancer model in female BALB/c mice. Compound 85 test particle was delivered via PO when tumors reached 80 mm^3. The compound was assessed at six different dose levels (3 mpk, l0 mpk, 30 mpk for BID and 6 mpk, 20 mpk and 60 mpk for QD). Tumor volumes and body weight were measured twice per week after the initiation of treatment. Compound 85 level was assessed in the plasma and tumor at the end of the study.
The CT26 tumor cells were maintained in vitro with RPMI-1640 medium supplemented with 10% fetal bovine serum at 37° C. in an atmosphere of 5% CO2. The cells in exponential growth phase were harvested and quantitated by cell counter before tumor inoculation.
Each mouse was inoculated subcutaneously in the right lower flank region with CT26 tumor cells (5×10^5) in 0.1 ml of PBS.
The randomization started when the mean tumor size reaches approximately 80.7 mm^3. In total, 80 mice were enrolled in the study and randomly allocated into 8 study groups, with 10 mice per group. Randomization was performed based on the “Matched distribution” method (Study Director™ software, version 3.1.399.19). The date of randomization was denoted as day 0.
as §1, with “weights would be” for “weights were”, “measured twice” for “measured thrice”
as §2, with “twice” for “three times”, “Dosing” for “Dosing,”, “measurements” for “measurements,”

[4] = Body weight and mortality monitoring in CT26 model (Example 5); type: in vivo
Experimental: as §3
as §1, with “weights would be” for “weights were”, “measured twice” for “measured thrice”
The body weights and tumor volumes were measured by using Study Director™ software (version 3.1.399.19).

SMILES	TGI (%) ([1]; 60 mpk BID p.o.)	TGI (%) ([2]; 30 mg/kg BID p.o.)	TGI (%) ([2]; 60 mg/kg BID p.o.)	TGI (%) ([2]; 100 mg/kg BID p.o.)	TGI(%) on Day 18 ([3]; 30 mpk BID p.o.)	loss of average body weight ([4]; day 3, 30 mpk BID p.o.)	loss of average body weight ([4]; day 3, 60 mpk QD p.o.)	mortality ([4]; mouse, in vivo)	TGI (%) ([1]; 2 mpk QD p.o.)	TGI (%) ([1]; 10 mpk QD p.o.)	TGI (%) ([1]; 20 mpk QD p.o.)	TGI (%) ([1]; 40 mpk QD p.o.)	minimal efficacious dose (lowest dose showing significant tumor inhibition) ([1]; QD p.o., single agent)	maximum TGI ([1]; high doses, 20 mpk or 40 mpk QD)	TGI(%) on Day 18 ([3]; 3 mpk BID p.o.)	TGI(%) on Day 18 ([3]; 6 mpk QD p.o.)	TGI(%) on Day 18 ([3]; 10 mpk BID p.o.)	TGI(%) on Day 18 ([3]; 20 mpk QD p.o.)	TGI(%) on Day 18 ([3]; 60 mpk QD p.o.)
C[C@H]1CCCN(Cc2cc(C(F)(F)F)c3cn(-c4cccc(C5(Cc6nncn6C)COC5)c4)c(=O)n3c2)C1 [Compound 29]	63.97%	10.78%	41.76%	50.83%	17.3%														
C[C@H]1CCCN(Cc2cc(C(F)(F)F)c3cn(-c4cncc([C@H](c5nncn5C)C5CCC5)c4)c(=O)n3c2)C1 [Compound 85]		43.02%			37.9%	less than 5%	less than 5%	No mortality was reported	19.56%	41.21%	68.54%	64.65%	6 mpk	~65%	18.7%	3.8%	24.4%	22.2%	33.9%
